Laboratory results published in PubChem BioAssay AID222 (DTP/NCI, 2004).
“And” between values parts separate entries of the source, which are not always exact repeats. Equal values may be shown once. Inconclusive results and toxic doses are left out.

Tested on: C57BL/6 mice, intracerebral ependymoblastoma, median survival T/C
Assay: NCI In Vivo Anticancer Drug Screen. Data for tumor model Ependymoblastoma (intracerebral) in C57BL/6 mice
Settings: endpoint: median survival time, higher = longer survival
Method: The antitumor activity of compounds was measured in mice bearing transplantable tumors. Survival or tumor size were measured and the results are expressed as the measurement made in the treated group (T) divided by the measurement made in the vehicle treated control group (C). The tumor model used in this assay is Ependymoblastoma (intracerebral) in C57BL/6 mice

[1] = dose: 64.0 mg/kg/injection, schedule: Q01DX005 (ip), vehicle: Klucel (hydroxypropylcellulose) (HPC)
[2] = dose: 64.0 mg/kg/injection, schedule: Q01DX005 (ip), vehicle: saline with Tween-80
[3] = dose: 128.0 mg/kg/injection, schedule: Q01DX005 (ip), vehicle: saline with Tween-80
[4] = dose: 8.0 mg/kg/injection, schedule: Q01DX005 (ip), vehicle: saline
[5] = dose: 16.0 mg/kg/injection, schedule: Q01DX005 (ip), vehicle: saline
[6] = dose: 32.0 mg/kg/injection, schedule: Q01DX005 (ip), vehicle: saline
[7] = dose: 64.0 mg/kg/injection, schedule: Q01DX005 (ip), vehicle: saline

O=NN(CCCl)C(=O)NCCCl
T/C (dose: 0.12 mg/kg/injection, schedule: Q03HX032 (ip), vehicle: saline): 113 % of control and 291 % of control
T/C (dose: 0.25 mg/kg/injection, schedule: Q03HX032 (ip), vehicle: saline): 291 % of control
T/C (dose: 0.5 mg/kg/injection, schedule: Q03HX008 (ip), vehicle: saline): 110 % of control
T/C (dose: 0.5 mg/kg/injection, schedule: Q03HX032 (ip), vehicle: saline): 169 % of control
T/C (dose: 1.0 mg/kg/injection, schedule: Q01DX005 (ip), vehicle: saline + alcohol): 109 % of control
T/C (dose: 2.0 mg/kg/injection, schedule: Q01DX001 (ip), vehicle: Klucel (hydroxypropylcellulose) (HPC)): 95 % of control and 100 % of control and 111 % of control
T/C (dose: 2.0 mg/kg/injection, schedule: Q01DX005 (ip), vehicle: saline with Tween-80): 113 % of control
T/C (dose: 2.0 mg/kg/injection, schedule: Q03HX008 (ip), vehicle: saline): 103 % of control and 251 % of control
T/C (dose: 2.0 mg/kg/injection, schedule: Q03HX032 (ip), vehicle: saline): 151 % of control and 179 % of control
T/C (dose: 4.0 mg/kg/injection, schedule: Q01DX001 (ip), vehicle: Klucel (hydroxypropylcellulose) (HPC)): 101 % of control and 106 % of control and 120 % of control
T/C (dose: 4.0 mg/kg/injection, schedule: Q01DX001 (oral), vehicle: saline with Tween-80): 97 % of control and 108 % of control
T/C (dose: 4.0 mg/kg/injection, schedule: Q01DX005 (ip), vehicle: alcohol): 106 % of control
T/C (dose: 4.0 mg/kg/injection, schedule: Q03HX008 (ip), vehicle: saline): 178 % of control and 327 % of control
T/C (dose: 4.0 mg/kg/injection, schedule: Q## X006 (ip), vehicle: saline with Tween-80): 159 % of control
T/C (dose: 8.0 mg/kg/injection, schedule: Q01DX001 (ip), vehicle: Klucel (hydroxypropylcellulose) (HPC)): 115 % of control
T/C (dose: 8.0 mg/kg/injection, schedule: Q01DX001 (oral), vehicle: saline with Tween-80): 95 % of control and 102 % of control and 122 % of control
T/C (dose: 8.0 mg/kg/injection, schedule: Q01DX005 (ip), vehicle: saline + alcohol): 361 % of control
T/C (dose: 8.0 mg/kg/injection, schedule: Q03HX008 (ip), vehicle: saline): 96 % of control and 98 % of control
T/C (dose: 8.0 mg/kg/injection, schedule: Q## X006 (ip), vehicle: saline with Tween-80): 219 % of control
T/C (dose: 10.0 mg/kg/injection, schedule: Q01DX001 (ip), vehicle: other): 124 % of control
T/C (dose: 15.0 mg/kg/injection, schedule: Q01DX001 (ip), vehicle: saline with Tween-80): 176 % of control
T/C (dose: 16.0 mg/kg/injection, schedule: Q01DX001 (ip), vehicle: Klucel (hydroxypropylcellulose) (HPC)): 150 % of control and 228 % of control
T/C (dose: 16.0 mg/kg/injection, schedule: Q01DX001 (ip), vehicle: other): 124 % of control
T/C (dose: 16.0 mg/kg/injection, schedule: Q01DX001 (oral), vehicle: saline with Tween-80): 158 % of control
T/C (dose: 16.0 mg/kg/injection, schedule: Q01DX005 (ip), vehicle: saline + alcohol): 96 % of control
T/C (dose: 16.0 mg/kg/injection, schedule: Q08DX002 (ip), vehicle: saline): 207 % of control and 291 % of control
T/C (dose: 20.0 mg/kg/injection, schedule: Q01DX001 (ip), vehicle: other): 164 % of control
T/C (dose: 20.0 mg/kg/injection, schedule: Q01DX001 (oral), vehicle: saline with Tween-80): 195 % of control
T/C (dose: 30.0 mg/kg/injection, schedule: Q01DX001 (ip), vehicle: saline with Tween-80): 212 % of control
T/C (dose: 32.0 mg/kg/injection, schedule: Q01DX001 (ip), vehicle: Klucel (hydroxypropylcellulose) (HPC)): 101 % of control and 217 % of control and 231 % of control
T/C (dose: 32.0 mg/kg/injection, schedule: Q01DX001 (ip), vehicle: other): 219 % of control
T/C (dose: 32.0 mg/kg/injection, schedule: Q01DX001 (oral), vehicle: saline with Tween-80): 108 % of control
T/C (dose: 32.0 mg/kg/injection, schedule: Q04DX004 (ip), vehicle: saline): 111 % of control
T/C (dose: 40.0 mg/kg/injection, schedule: Q01DX001 (ip), vehicle: other): 196 % of control
T/C (dose: 64.0 mg/kg/injection, schedule: Q01DX001 (ip), vehicle: saline with Tween-80): 94 % of control
T/C (dose: 64.0 mg/kg/injection, schedule: Q01DX001 (oral), vehicle: saline with Tween-80): 94 % of control
T/C (dose: 64.0 mg/kg/injection, schedule: Q04DX004 (ip), vehicle: saline): 100 % of control
T/C (dose: 64.0 mg/kg/injection, schedule: Q08DX002 (ip), vehicle: saline): 97 % of control
T/C (dose: 128.0 mg/kg/injection, schedule: Q01DX001 (ip), vehicle: saline with Tween-80): 97 % of control
T/C (dose: 128.0 mg/kg/injection, schedule: Q01DX001 (oral), vehicle: saline with Tween-80): 92 % of control
T/C (dose: 256.0 mg/kg/injection, schedule: Q01DX001 (ip), vehicle: saline with Tween-80): 88 % of control
T/C (dose: 256.0 mg/kg/injection, schedule: Q01DX001 (oral), vehicle: saline with Tween-80): 88 % of control

CN(C)CC(=O)c1ccc(O)c(O)c1
T/C (dose: 100.0 mg/kg/injection, schedule: Q01DX005 (ip), vehicle: saline): 101 % of control
T/C (dose: 200.0 mg/kg/injection, schedule: Q01DX005 (ip), vehicle: saline): 99 % of control
T/C (dose: 400.0 mg/kg/injection, schedule: Q01DX005 (ip), vehicle: saline): 108 % of control

NC(CSC(c1ccccc1)(c1ccccc1)c1ccccc1)C(=O)O (stereo unspecified)
T/C (dose: 32.0 mg/kg/injection, schedule: Q01DX005 (ip), vehicle: Klucel (hydroxypropylcellulose) (HPC)): 99 % of control
T/C [1]: 109 % of control

Cc1cn(C2CC(O)C(CO)O2)c(=O)[nH]c1=O (stereo unspecified)
T/C [2]: 92 % of control and 97 % of control
T/C (dose: 100.0 mg/kg/injection, schedule: Q01DX005 (ip), vehicle: saline with Tween-80): 91 % of control
T/C [3]: 90 % of control and 105 % of control
T/C (dose: 200.0 mg/kg/injection, schedule: Q01DX005 (ip), vehicle: saline with Tween-80): 98 % of control
T/C (dose: 256.0 mg/kg/injection, schedule: Q01DX005 (ip), vehicle: saline with Tween-80): 95 % of control and 87 % of control
T/C (dose: 400.0 mg/kg/injection, schedule: Q01DX005 (ip), vehicle: saline with Tween-80): 96 % of control
T/C (dose: 512.0 mg/kg/injection, schedule: Q01DX005 (ip), vehicle: saline with Tween-80): 100 % of control
T/C (dose: 800.0 mg/kg/injection, schedule: Q01DX005 (ip), vehicle: saline with Tween-80): 98 % of control
T/C (dose: 1024.0 mg/kg/injection, schedule: Q01DX005 (ip), vehicle: saline with Tween-80): 100 % of control and 101 % of control
T/C (dose: 1600.0 mg/kg/injection, schedule: Q01DX005 (ip), vehicle: saline with Tween-80): 98 % of control

CCN(CC)CCCC(C)Nc1c2ccc(Cl)cc2nc2ccc(OC)cc12 (stereo unspecified)
T/C [4]: 104 % of control
T/C (dose: 16.0 mg/kg/injection, schedule: Q01DX005 (ip), vehicle: saline with Tween-80): 91 % of control
T/C [5]: 98 % of control
T/C (dose: 32.0 mg/kg/injection, schedule: Q01DX005 (ip), vehicle: saline with Tween-80): 102 % of control
T/C [6]: 90 % of control
T/C [2]: 94 % of control
T/C [7]: 95 % of control
T/C [3]: 94 % of control

Cc1ncc([N+](=O)[O-])n1CCO
T/C [1]: 103 % of control
T/C (dose: 128.0 mg/kg/injection, schedule: Q01DX005 (ip), vehicle: Klucel (hydroxypropylcellulose) (HPC)): 99 % of control
T/C (dose: 256.0 mg/kg/injection, schedule: Q01DX005 (ip), vehicle: Klucel (hydroxypropylcellulose) (HPC)): 107 % of control
T/C (dose: 512.0 mg/kg/injection, schedule: Q01DX005 (ip), vehicle: Klucel (hydroxypropylcellulose) (HPC)): 111 % of control
T/C (dose: 1024.0 mg/kg/injection, schedule: Q01DX005 (ip), vehicle: Klucel (hydroxypropylcellulose) (HPC)): 94 % of control

NC(=S)N/N=C/c1ccc(O)cn1
T/C (dose: 12.0 mg/kg/injection, schedule: Q01DX005 (ip), vehicle: saline): 108 % of control
T/C (dose: 24.0 mg/kg/injection, schedule: Q01DX005 (ip), vehicle: saline): 94 % of control
T/C (dose: 48.0 mg/kg/injection, schedule: Q01DX005 (ip), vehicle: saline): 101 % of control
T/C (dose: 96.0 mg/kg/injection, schedule: Q01DX005 (ip), vehicle: saline): 104 % of control

CCC(=O)O[C@H]1CC[C@H]2[C@@H]3CCC4=CC(=O)CC[C@]4(C)[C@H]3CC[C@]12C
T/C [4]: 91 % of control and 98 % of control
T/C [5]: 90 % of control and 102 % of control
T/C [6]: 93 % of control and 100 % of control
T/C [7]: 98 % of control and 99 % of control
T/C (dose: 128.0 mg/kg/injection, schedule: Q01DX005 (ip), vehicle: saline): 90 % of control
T/C (dose: 256.0 mg/kg/injection, schedule: Q01DX005 (ip), vehicle: saline): 89 % of control and 94 % of control
T/C (dose: 512.0 mg/kg/injection, schedule: Q01DX005 (ip), vehicle: saline): 91 % of control and 99 % of control
